From patent US20250221987A1, “PIPERAZINO RING-CONTAINING DERIVATIVE, PHARMACEUTICALLY ACCEPTABLE SALT THEREOF, PREPARATION METHOD THEREFOR, AND APPLICATION THEREOF” (ACERAND THERAPEUTICS (HONG KONG) LIMITED, priority 2022, published 2025)
Read-outs that look alike come from different tables or passages of the source. One block for each compound: values may come before it.

Columns and labels:
[1] = Pharmacokinetic study in ICR (CD-1) mice; format: in vivo; settings: male ICR (CD-1) mice, tail vein 1 mg/kg, oral 3 mg/kg groups, plasma; for half-life: mouse, read-out: Half-life t1/2 (converted)
Experimental: ICR (CD-1) male mice, 3 mice per group. One group of mice was injected with the compound to be tested via the tail vein at a dose of 1 mg/kg. The other group of mice was administered the compound to be tested via single-dose oral administration at a dose of 3 mg/kg. In the tail vein injection group, blood was collected from the saphenous vein at 5 minutes, 15 minutes, 30 minutes, 1 hour, 2 hours, 4 hours, 8 hours, and 24 hours post-administration. In the single-dose oral administration group, blood was collected at 15 minutes, 30 minutes, 1 hour, 2 hours, 4 hours, 8 hours, and 24 hours post-administration. The collected blood was placed in an EDTA-K2 anticoagulant tube, and 30 μL of whole blood was collected at each time point. Immediately after collection, blood samples were placed on wet ice for centrifugation. Samples would be centrifuged (maintained at 4600 rpm for 5 minutes at 4° C.) within 30 minutes to obtain plasma. The plasma sample was placed into a test tube (a target of 12 to 20 μL) for analysis. […] of plasma was added with 5 μL of MeOH, then added with 200 μL of MeOH/ACN solution containing 5 ng/mL of ISTD (Terfenadine), mixed well with shaking, and centrifuged at 4000 rpm for 15 minutes. The supernatant was diluted 5-fold with MeOH/water (1:1, v/v, 0.1% FA), and loaded to LC-MS/MS for quantification of plasma concentration by analytical methods and calculation of pharmacokinetic parameters.

[2] = target: PARP1 (Homo sapiens (Human), UniProt P09874); assay: PARP1 enzymatic activity assay; format: biochemical; settings: for IC50: final PARP1 0.02 nM, DNA 0.8 nM, NAD+ 3.5 μM, 60 minutes; for PARP1/PARP2 inhibition Selectivity multiple N (N = IC50 (PARP2)/IC50 (PARP1)): ratio IC50 (PARP2)/IC50 (PARP1)
Experimental: 2) After the coating was completed, the coating buffer was discarded.
After washing, the blocking buffer was discarded.
4) 1000× compound was prepared. 1 μL of compound was transferred to a 96-well plate containing 199 μL of reaction buffer (50 mM Tris-HCl (pH 7.5), 0.005% Tween-20, 0.01% BSA) and mixed well.
5) 25/10×PARP1-DNA solution was prepared with reaction buffer.
6) 25/10×NAD+ solution was prepared with reaction buffer.
8) Primary antibody was 2000-fold diluted with the blocking buffer. 20 μL of primary antibody was added to the reaction plate, which was incubated at room temperature for 1.5 hours.
9) The primary antibody was discarded.
10) Secondary antibody was 2000-fold diluted with the blocking buffer.
11) The secondary antibody was discarded.
The chemiluminescence value RLU was read with Envision.

[3] = target: PARP2 (Homo sapiens (Human), UniProt Q9UGN5); assay: PARP2 enzymatic activity assay; format: biochemical; settings: Biotin-NAD+ 2 μM, 60 minutes
[4] = test system: MDA-MB-436 cells; assay: Proliferation activity assay of MDA-MB-436 cells (CellTiter-Glo); format: cell-based; settings: 4000 cells seeded, 6 days incubation, read-out: MDA-MB-436 proliferation inhibition IC50
Experimental: Complete culture medium was prepared and mixed thoroughly. The cells were resuscitated and cultured for about two passages to select a cell line in good growth condition. The cell culture flask was removed from the incubator. Cell adherence: the culture medium was aspirated, then the cells were washed once with trypsin to discard the waste liquid, and 3 mL of fresh trypsin was added to the culture flask for digestion. When the cells were loose to be detached from the wall of the flask, 8 mL of complete culture medium was added thereto to stop trypsin digestion and mixed gently. The cell suspension was transferred to a centrifuge tube with a pipette and centrifuged at 1000 rpm for 5 minutes. The supernatant was discarded. An appropriate volume of culture medium was added to the centrifuge tube and pipetted gently to resuspend the cells evenly. The cells were counted using a Vi-Cell XR cell counter. The cell suspension was adjusted to an appropriate concentration. The cell suspension was added to a 96-well plate at 100 µL/well. The details such as cell name, seeding density, and date were labelled, and the culture plate was placed in a CO2 incubator overnight.
The compound to be tested was prepared into a 10 mM stock solution, which was aliquoted and stored in a −20° C. freezer. The compound solution was added to a 96-well plate using HPD300. The plate was incubated in a CO2 incubator for a total of 6 days.
CellTiter-Glo buffer was melted at room temperature. The lyophilized CellTiter-Glo substrate was equilibrated to room temperature. CellTiter-Glo buffer was added to the CellTiter Glo substrate and mixed thoroughly. A cell plate was taken out and equilibrated to room temperature. 100 μL of mixed CellTiter Glo reagent was added to each well, and the mixture was shaken in the dark for 10 minutes, followed by incubation for 20 minutes. The culture plate was placed into an Enspire reading plate, and the luminescence reading results were recorded. […] A pharmacodynamic inhibition rate curve was plotted by using XLFit, and the IC50 value was calculated. The 4-parameter model [fit=(A+((B−A)/(1+((C/x)^D)))] was used.

[5] = Homo sapiens, MDA-MB-436, 144 h

Chain of PARP1 (P09874 whole entry): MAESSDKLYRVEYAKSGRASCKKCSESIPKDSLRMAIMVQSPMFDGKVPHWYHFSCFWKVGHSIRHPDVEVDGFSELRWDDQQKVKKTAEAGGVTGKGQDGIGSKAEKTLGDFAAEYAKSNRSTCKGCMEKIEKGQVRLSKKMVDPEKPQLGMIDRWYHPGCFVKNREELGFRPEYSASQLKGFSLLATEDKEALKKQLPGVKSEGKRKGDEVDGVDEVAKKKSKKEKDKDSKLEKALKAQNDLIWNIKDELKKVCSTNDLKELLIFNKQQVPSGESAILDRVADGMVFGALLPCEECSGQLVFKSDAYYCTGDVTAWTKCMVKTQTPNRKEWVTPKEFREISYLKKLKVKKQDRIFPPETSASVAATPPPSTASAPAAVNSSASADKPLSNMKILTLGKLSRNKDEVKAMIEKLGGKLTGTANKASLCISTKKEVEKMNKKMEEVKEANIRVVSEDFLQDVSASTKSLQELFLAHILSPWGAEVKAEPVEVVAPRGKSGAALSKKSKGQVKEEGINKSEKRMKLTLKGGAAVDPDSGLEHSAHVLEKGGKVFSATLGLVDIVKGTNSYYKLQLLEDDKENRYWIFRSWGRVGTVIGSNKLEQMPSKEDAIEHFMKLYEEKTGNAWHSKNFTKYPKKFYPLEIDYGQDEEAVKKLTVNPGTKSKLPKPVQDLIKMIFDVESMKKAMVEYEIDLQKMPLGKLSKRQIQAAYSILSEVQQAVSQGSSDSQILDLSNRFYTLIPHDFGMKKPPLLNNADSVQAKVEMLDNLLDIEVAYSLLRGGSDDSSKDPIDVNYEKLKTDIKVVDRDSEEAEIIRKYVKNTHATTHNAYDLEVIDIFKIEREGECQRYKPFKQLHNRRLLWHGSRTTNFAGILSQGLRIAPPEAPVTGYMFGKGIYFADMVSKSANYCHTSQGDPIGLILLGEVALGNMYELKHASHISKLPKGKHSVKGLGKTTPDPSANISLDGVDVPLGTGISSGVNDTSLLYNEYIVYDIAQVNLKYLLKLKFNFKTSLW
Chain of PARP2 (Q9UGN5 whole entry): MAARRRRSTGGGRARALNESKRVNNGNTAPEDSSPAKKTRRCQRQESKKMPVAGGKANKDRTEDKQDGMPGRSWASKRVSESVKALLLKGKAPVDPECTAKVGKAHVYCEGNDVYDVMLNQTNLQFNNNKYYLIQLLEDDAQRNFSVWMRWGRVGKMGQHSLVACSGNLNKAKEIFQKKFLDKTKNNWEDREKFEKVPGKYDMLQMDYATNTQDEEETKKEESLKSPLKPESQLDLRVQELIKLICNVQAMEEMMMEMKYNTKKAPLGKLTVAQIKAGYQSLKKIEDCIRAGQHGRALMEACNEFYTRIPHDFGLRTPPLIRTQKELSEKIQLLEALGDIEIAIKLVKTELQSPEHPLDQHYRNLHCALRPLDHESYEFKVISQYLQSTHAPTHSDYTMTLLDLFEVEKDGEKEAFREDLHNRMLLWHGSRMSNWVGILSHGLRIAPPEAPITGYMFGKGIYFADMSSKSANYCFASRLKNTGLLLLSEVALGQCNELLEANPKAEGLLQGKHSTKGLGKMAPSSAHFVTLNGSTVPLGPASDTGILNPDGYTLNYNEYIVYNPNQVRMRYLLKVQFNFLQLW

IC50 [2]: 0.5 nM
PARP1/PARP2 inhibition Selectivity multiple N (N = IC50 (PARP2)/IC50 (PARP1)) [2]: 120
IC50 ([3]; final PARP2 1.5 nM): 60 nM
Clearance [1]: 1.92 mL/h/kg
half-life [1]: 41.3 h
Structure (SMILES): CNC(=O)c1ccc(N2CCN(Cc3cnc4c5c(c(=O)[nH]c4c3)CCC5)[C@H]3CC[C@H]32)cn1 [Example 12-2, N-methyl-5-[(1R,6S)-5-((6-oxo-5H,7H,8H,9H-cyclopenta[c][1,5]naphthyridin-3-yl)methyl)-2,5-diazabicyclo[4.2.0]octan-2-yl]pyridine-2-carboxamide]
IC50 [4, 5]: 2 nM

IC50 [2]: 1.2 nM
PARP1/PARP2 inhibition Selectivity multiple N (N = IC50 (PARP2)/IC50 (PARP1)) [2]: 39
IC50 ([3]; final PARP2 1.5 nM): 47 nM
Clearance [1]: 1.62 mL/h/kg
half-life [1]: 47.6 h
Structure (SMILES): CNC(=O)c1ccc(N2CCN(Cc3cnc4cc(C(F)(F)F)c(=O)[nH]c4c3)[C@H]3CC[C@H]32)cn1 [Example 30-2, N-methyl-5-((1R,6S)-5-((6-oxo-7-(trifluoromethyl)-5,6-dihydro-1,5-naphthyridin-3-yl)methyl)-2,5-diazabicyclo[4.2.0]octan-2-yl)picolinamide]
IC50 [4, 5]: 1 nM

IC50 [2]: 0.3 nM
PARP1/PARP2 inhibition Selectivity multiple N (N = IC50 (PARP2)/IC50 (PARP1)) [2]: 303
IC50 ([3]; final PARP2 1.5 nM): 91 nM
Structure (SMILES): CNC(=O)c1ccc(N2CCN(Cc3cnc4c5c(c(=O)[nH]c4c3)OCCC5)[C@@H]3CC[C@@H]32)cn1 [Example 31-1, N-methyl-5-((1S,6R)-5-((6-oxo-6,8,9,10-tetrahydro-5H-pyrano[2,3-c][1,5]naphthyridin-3-yl)methyl)-2,5-diazabicyclo[4.2.0]octan-2-yl)picolinamide]
IC50 [4, 5]: 3 nM

Further lines, the compound ahead of its results:

Structure (SMILES): CCc1cc2ncc(CN3CCN(c4ccc(C(=O)NC)nc4)CC3)cc2[nH]c1=O [AZD5305, reference compound]
Clearance [1]: 10.3 mL/h/kg
half-life [1]: 8.04 h

Structure (SMILES): CCc1cc2ncc(CN3CCN(c4ccc(C(=O)NC)nc4)[C@@H]4CC[C@@H]43)cc2[nH]c1=O [Example 2-2, 5-((1R,6S)-5-((7-ethyl-6-carbonyl-5,6-dihydro-1,5-naphthyridin-3-yl)methyl)-2,5-diazabicyclo[4.2.0]octan-2-yl)-N-methylpyridine-2-carboxamide]
IC50 [2]: 0.6 nM
PARP1/PARP2 inhibition Selectivity multiple N (N = IC50 (PARP2)/IC50 (PARP1)) [2]: 71
IC50 ([3]; final PARP2 […]): 46.4 nM
IC50 [4]: 1 nM
Clearance [1]: 1.74 mL/h/kg
Half-life t1/2 [1]: 57.9 h
